Read-outs that look alike come from different tables or passages of the source.
How the values were obtained:
[1] = system: dLight1.3b; test: Unpredicted reward or footshock with PFC dLight1.3b photometry; format: in vivo, mouse
Procedure: (§1) After habituating mice to the experimental chamber (4 consecutive days for 5–10 min) mice were food restricted to 90% ad libitum body weight. […] During learning sessions, the delay between CS and US was increased every training day from 2 to 10 seconds until mice became expert. […] After i.p. injection, mice were placed into an operant chamber. 3–4 electric footshocks (0.4 mA for 1 second) were delivered 10 to 25 min post vehicle or DETQ with variable intervals (randomly chosen from a uniform distribution between 240 and 360 seconds or between 120 and 240 seconds) without predictive cues. Mouse freezing behavior was monitored with a video camera (C310 Logitech,10 frames per second) positioned above the recording chamber and controlled by the Synapse software. […] Freezing was defined as the complete cessation of all movement for at least 1 s during a 25-min testing duration.
For long-term recordings during optogenetic stimulation or chemogenetic inhibition linear fit was calculated across the entire recording or across the vehicle epoch; for event-related experiments fit was performed on fluorescent data obtained in the −60 to +60 s around opto events or −5 to −1 s around behavioral events. […] DA event-related responses were quantified by computing the value at the transient’s peak value and the AUC in the 0 to 10 s or 0 to 60 s period post-event onset. […] The maximal peak value of Veh-normalized ΔF/F0 after opto-onset was plotted over time and the plateau of maximal response was determined by averaging peak opto responses 5, 10, 15 and 20 min post-DETQ. We then looked at trials between 5 and 65 min post-DETQ to determine which trials belonged to a ‘temporal window for stable imaging’. […] Average ΔF/F0 in the 10–20 min post vehicle injection, 0–10 min post DETQ/Veh and 2–12 min post J60/Veh were computed. […] For weekly DETQ injection, AUC was calculated in the relevant drug epoch (Veh, DETQ) and normalized against the duration of that epoch (Veh: 10 min, DETQ: 50 min). […] AUC of the baseline was calculated within the +5 to +40 minutes time window post ip injection. For detection of spontaneous DA peaks the calculated ΔF/F0 was smoothed with a 50 datapoints (410 milliseconds) moving window, and the built-in Matlab function findpeaks was applied, with the threshold for minimal peak prominence set to 0.5% ΔF/F0.

[2] = set-up: method as in Rajagopal et al., 2024; details: ref Rajagopal et al., 2024, cited from earlier work
[3] = system: dLight1.3b; test: In vivo single-fiber photometry of dLight1.3b baseline in freely-moving mice; set-up: species or system mouse; details: DETQ 10 mg/kg i.p.
Procedure: For combined locomotion/photometry experiments in the open field (OF) in tethered mice, a 50 × 50 cm arena was used. Fiber photometry was conducted using a Doric photometry rig combined with a filter/mirror minicube set (Doric Lenses), as above. […] Data were sampled at 122 Hz. […] Mice were habituated to the chamber for 3 consecutive days (30 minutes per day). On experimental days, locomotor activity was video recorded and synchronized with fiber photometry signal recording. […] The OF chamber was cleaned with ethanol and water between mice. Recording sessions were repeated at 48 hours intervals. Mouse behavior as well as photometry signals were analyzed with a custom-written MATLAB script. Mouse locomotion was computed using the body center point of the animal. The center zone of the arena was defined automatically during behavior data analysis as the 25 × 25 cm square with the central point aligned to the center of the open field. […] Videos were recorded with a Logitech C270 camera and analyzed with DeepLabCut (version 2.1.8.2)[84] on an existing open field network. Representative traces were generated with the Anymaze (v7.2) software (Stoelting Co.).

[4] = molecular target: T1, msDRD1 (Mus musculus, UniProt Q61616); details: cited from earlier work
T1 construct: expressed in transfected cells; host or cells: HEK293T
T1 sequence (Q61616 whole entry): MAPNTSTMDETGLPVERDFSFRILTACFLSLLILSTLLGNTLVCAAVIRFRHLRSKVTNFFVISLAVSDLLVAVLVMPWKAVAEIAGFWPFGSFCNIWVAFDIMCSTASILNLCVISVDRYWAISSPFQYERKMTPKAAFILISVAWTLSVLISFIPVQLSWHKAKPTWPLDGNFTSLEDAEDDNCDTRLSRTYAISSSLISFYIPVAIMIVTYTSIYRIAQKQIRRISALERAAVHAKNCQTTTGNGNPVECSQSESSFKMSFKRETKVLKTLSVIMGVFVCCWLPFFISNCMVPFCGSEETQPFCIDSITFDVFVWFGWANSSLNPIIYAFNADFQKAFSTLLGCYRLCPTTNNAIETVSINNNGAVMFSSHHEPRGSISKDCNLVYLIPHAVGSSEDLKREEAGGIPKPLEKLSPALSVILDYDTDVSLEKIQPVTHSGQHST

[5] = system: dLight1.3b; test: Cue-reward Pavlovian conditioning with NAc dLight1.3b photometry; format: in vivo, mouse
Procedure: as §1
For long-term recordings during optogenetic stimulation or chemogenetic inhibition linear fit was calculated across the entire recording or across the vehicle epoch; for event-related experiments fit was performed on fluorescent data obtained in the −60 to +60 s around opto events or −5 to −1 s around behavioral events. […] DA event-related responses were quantified by computing the value at the transient’s peak value and the AUC in the 0 to 10 s or 0 to 60 s period post-event onset. […] The maximal peak value of Veh-normalized ΔF/F0 after opto-onset was plotted over time and the plateau of maximal response was determined by averaging peak opto responses 5, 10, 15 and 20 min post-DETQ. We then looked at trials between 5 and 65 min post-DETQ to determine which trials belonged to a ‘temporal window for stable imaging’. […] AUC of the baseline was calculated within the +5 to +40 minutes time window post ip injection. For detection of spontaneous DA peaks the calculated ΔF/F0 was smoothed with a 50 datapoints (410 milliseconds) moving window, and the built-in Matlab function findpeaks was applied, with the threshold for minimal peak prominence set to 0.5% ΔF/F0.

[6] = molecular target: AlloLite-ctr (Homo sapiens, UniProt P21728, L143A/R130Q); format: cell-based
Procedure: Cells were transfected at 50–60% confluency in glass-bottomed dishes (either individually or in 24-well plates) using the Effectene transfection kit (Qiagen) according to manufacturer instructions, and imaged 24–48 h after transfection. The Flp-In™ T-REx™ 293 cells (Thermo Fisher) with a stably integrated dLight1.3b cassette[48] were cultured as follows: the cells were cultured using HEK293T cell medium with the addition of Blasticidin (15 µg/ml) and Hygromycin B (200 µg/ml). To induce the expression of dLight1.3b, doxycycline (500 ng/ml) was added to the culture medium for 24–48 hours. Before imaging, cells were rinsed with 1 mL of Hank’s Balanced Salt Solution (HBSS, Life Technologies) supplemented with Ca^2+ (2 mM) and Mg^2+ (1 mM), and imaged at room temperature with a final HBSS volume of either 100 µL for each individual 1.5 cm glass bottom dish, or 500 µL for 24-well plates. […] For quantification, except otherwise noted, regions of interest (ROI) were selected manually using the threshold function of Fiji to isolate the cell membrane. Sensor response (∆F/F) was calculated as the following: (F(t)-F_base)/F_base with F(t) being the ROI fluorescence value at each time point (t), and F_base being the mean fluorescence of the 10-time points immediately prior to ligand addition.

[7] = molecular target: T2, mouse DA transporter (DAT) (Mus musculus, UniProt Q61327); test: Fast-scan cyclic voltammetry of DA release in striatal slices; details: bath application: DETQ 200 nM; cocaine 5 µM
T2 construct: Lack of DETQ effect on the endogenous DA transporter; from tissue; host or cells: mouse striatal brain slices
T2 sequence (Q61327 whole entry): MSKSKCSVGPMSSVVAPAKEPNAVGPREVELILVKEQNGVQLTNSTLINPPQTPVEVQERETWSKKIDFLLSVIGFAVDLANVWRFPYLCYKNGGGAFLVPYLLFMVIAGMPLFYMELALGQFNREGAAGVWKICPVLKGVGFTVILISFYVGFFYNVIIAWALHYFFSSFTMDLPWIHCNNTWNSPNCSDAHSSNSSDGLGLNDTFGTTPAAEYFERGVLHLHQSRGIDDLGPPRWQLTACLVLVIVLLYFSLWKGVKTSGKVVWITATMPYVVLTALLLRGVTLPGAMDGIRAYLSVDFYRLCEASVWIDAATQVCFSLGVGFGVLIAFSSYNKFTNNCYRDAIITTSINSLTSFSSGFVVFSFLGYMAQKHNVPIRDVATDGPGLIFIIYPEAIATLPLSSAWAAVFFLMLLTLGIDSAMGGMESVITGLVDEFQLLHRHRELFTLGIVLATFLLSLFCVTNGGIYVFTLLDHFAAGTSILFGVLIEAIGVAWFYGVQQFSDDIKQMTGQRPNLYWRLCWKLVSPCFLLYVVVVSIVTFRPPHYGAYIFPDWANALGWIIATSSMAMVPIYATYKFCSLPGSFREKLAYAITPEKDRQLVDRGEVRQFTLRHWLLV
Procedure: Striatal DA release was measured using fast-scan cyclic voltammetry (FSCV) with a carbon fiber electrode (CFE; diameter 7 µm, length 50–100 µm) positioned approximately 100 µm below the surface of the slice. The CFE was scanned across a triangular waveform (−0.4 to +1.3 V, 400 V/s) at 10 Hz, and DA release was evoked by single-pulse electrical stimulation (30 µA, 0.5 ms) with an inter-stimulus interval of 180 s. DA release was evoked in the presence of DHBE (1 µM) to block nicotinic acetylcholine receptors. Peak background-subtracted DA oxidation current was measured at +0.6 V, and drugs were washed on after establishing a stable baseline.

[8] = NAc, DETQ 10 mg/kg vs vehicle days

## C[C@H]1c2cccc(C(C)(C)O)c2C[C@H](CO)N1C(=O)Cc1c(Cl)cccc1Cl [DETQ, 2-(2,6-dichlorophenyl)-1-((1S,3R)-3-(hydroxymethyl)-5-(2-hydroxypropan-2-yl)-1-methyl-3,4-dihydroisoquinolin-2(1H)-yl)ethan-1-one]
[1]; PFC, unpredicted reward
  increase in the average peak amplitude vs. Vehicle: 2 fold
  single trials with detected response to reward: 90.91 ± 1.40%
[1]; PFC, vs interleaved vehicle days
  amplitude of DA signals during unexpected footshocks: significantly larger
[1]; mouse, in vivo
  response to footshocks (freezing): not affected
[1]; unpredicted reward
  licking duration: remained unchanged
[2]; aged hD1 mice, PO 3-10 mg/kg
  deficits in Novel Object Recognition and Social Interaction: fully reversed these deficits
[2]; aged wild type mice
  deficits in Novel Object Recognition and Social Interaction: failed to reverse these deficits
[3]; NAc
  increase in sensor baseline: 15–20 % ∆F/F0
[3]; PFC
  increase in sensor baseline: 2–4 % ∆F/F0
[4]
  Kb: 312 nM
  fold less potent on msDRD1 than on hmDRD1: > 30 fold
[4]; potentiation of dopamine induced activation of cAMP, ref Hao et al., 2019, Wang et al., 2018
  selectivity for human vs mouse D1 in potentiator mode: 30 x
[4]; rodent (rat or mouse), ref Hao et al., 2019, Wang et al., 2018
  partial potentiation of dopamine (% of max potentiation): 45-53%
[5]; DETQ 10 mg/kg
  latency to lick and overall licking activity: not affected
[5]; [8]
  enhancement factor of CS-associated DA peak amplitude: approximately 2 fold
  enhancement factor of US-associated DA peak amplitude: ~1.5 fold
[6]
  α factor: 1.6
[6]; DA 100 µM, wide range of DETQ concentrations
  maximal fluorescent response to a saturating concentration of DA: not affected
[7]
  decay constant (tau) of DA signals: no effect
  peak DA release: no effect
